Laboratory results from patent US20220315572A1, “SUBSTITUTED CYANOPYRROLIDINES WITH ACTIVITY AS USP30 INHIBITORS” (MISSION THERAPEUTICS LIMITED, priority 2019, published 2022).

Experiments:
[1] = molecular target: T1, USP30 (Homo sapiens, UniProt Q70CQ3); test: USP30 biochemical IC50 assay (fluorescence polarisation); conditions: for IC50: USP30 biochemical IC50 assay, exemplary compounds, read-out: IC50; for fold more potent against USP30 than Reference Example A: v Reference Example A; for fold more potent against USP30 than Reference Example E: v Reference Example E; for fold more potent against USP30 than Reference Example F: v Reference Example F; for fold more potent against USP30 than Reference Example G: v Reference Example G
T1 construct: purchased Boston Biochem E582
T1 sequence (Q70CQ3 57-517 limits assumed): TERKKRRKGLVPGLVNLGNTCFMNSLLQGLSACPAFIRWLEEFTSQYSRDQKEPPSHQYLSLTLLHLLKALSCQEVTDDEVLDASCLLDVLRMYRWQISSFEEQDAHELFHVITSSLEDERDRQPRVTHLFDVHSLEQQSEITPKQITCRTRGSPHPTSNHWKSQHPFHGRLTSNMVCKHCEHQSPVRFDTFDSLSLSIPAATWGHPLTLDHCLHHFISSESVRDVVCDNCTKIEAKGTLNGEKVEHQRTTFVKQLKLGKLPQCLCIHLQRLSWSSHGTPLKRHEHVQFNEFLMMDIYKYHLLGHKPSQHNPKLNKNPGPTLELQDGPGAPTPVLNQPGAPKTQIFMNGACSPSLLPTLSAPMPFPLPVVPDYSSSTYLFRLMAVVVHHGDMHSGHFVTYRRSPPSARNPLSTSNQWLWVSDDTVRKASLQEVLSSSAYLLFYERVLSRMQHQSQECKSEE
Procedure: Dilution plates were prepared at 21 times the final concentration (2100 μM for a final concentration of 100 μM) in 50% DMSO in a 96-well polypropylene V-bottom plate (Greiner #651201). A typical 8-point dilution series would be 100, 30, 10, 3, 1, 0.3, 0.1, 0.03 μM final. Reactions were performed in duplicate in black 384 well plates (small volume, Greiner 784076) in a final reaction volume of 21 μl. Either […] of 50% DMSO or diluted compound was added to the plate. USP30 (Boston Biochem #E582) was diluted in reaction buffer (40 mM Tris, pH 7.5, 0.005% Tween 20, 0.5 mg/ml BSA, 5 mM beta-mercaptoethanol) to achieve a final assay concentration of 4 nM, and 10 μl of diluted USP30 was added to the compound. Enzyme and compound were incubated for 30 min at room temp. Reactions were initiated by the addition of 50 nM of TAMRA labelled peptide linked to ubiquitin via an iso-peptide bond as fluorescence polarisation substrate. Reactions were read immediately after addition of substrate and following a 2-hour incubation at room temperature. Readings were performed on a Pherastar Plus (BMG Labtech). λ Excitation 540 nm; λ Emission 590 nm.

[2] = tested on: HCT116 human colorectal carcinoma cells; test: In vitro cytotoxicity (Cell Tox), alamarBlue; format: cell-based; conditions: for EC50: Homo sapiens, HCT-116, 96-hour continual compound exposure, alamarBlue
Description: There is also a need for compounds that have a favourable safety profile, which may be measured by a variety of standard in vitro and in vivo methods. A cell toxicity counter-screen may be used to assay the anti-proliferative/cytotoxic effect in a particular cell line (e.g. HCT116) by fluorometric detection of rezasurin (alamarBlue) to resofurin in response to mitochondrial activity.
In Vitro Cytotoxicity (Cell Tox): Measured in HCT116 human colorectal carcinoma cells using alamarBlue as the assay endpoint. Compound cytotoxicity was measured over a period of 96-hour continual compound exposure.

[3] = tested on: Cathepsins B, K, L, S, V; test: Cathepsin IC50, range over B, K, L, S, V; format: biochemical; conditions: for Selectivity preference for USP30 v cathepsins: range over cathepsins B, K, L, S; for IC50: range over the five cathepsins
[4] = molecular target: Cathepsin S (Homo sapiens, UniProt P25774); test: Cathepsin IC50, cathepsin S; format: biochemical
Sequence of Cathepsin S (P25774 115-331, species assumed): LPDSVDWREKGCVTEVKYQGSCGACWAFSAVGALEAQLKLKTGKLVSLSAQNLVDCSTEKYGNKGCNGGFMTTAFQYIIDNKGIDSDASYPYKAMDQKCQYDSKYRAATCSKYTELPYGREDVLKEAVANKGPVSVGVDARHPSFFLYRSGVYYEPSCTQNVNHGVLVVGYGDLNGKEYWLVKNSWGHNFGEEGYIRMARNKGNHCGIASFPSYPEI

[5] = tested on: TK6 cells; test: In vitro micronucleus assay; format: cell-based; conditions: 27 hours recovery
Procedure: The micronucleus assay may be used to determine if a compound is genotoxic by evaluating the presence of micronuclei. Micronuclei may contain chromosome fragments produced from DNA breakage (clastogens) or whole chromosomes produced by disruption of the mitotic apparatus (aneugens).
(§1) Example 1 was assessed in the bacterial reverse mutation assay (Ames) and in vitro micronucleus assay. All in vitro tests were conducted with and without exogenous metabolic activation using concentrations up to those limited by cytotoxicity or insolubility.
Induction of chromosome damage was assessed using the in vitro micronucleus assay in TK6 cells. Example 1 was negative for induction of micronuclei when incubated for 3 hours in the presence of exogenous metabolic activation followed by 27 hours recovery, and also when incubated for 27 hours in the absence of exogenous metabolic activation followed by 27 hours recovery.

[6] = tested on: Salmonella typhimurium strains TA98, TA100, TA1535 and TA97a and the Escherichia Coli strain WP2 uvrA pKM101; test: Bacterial reverse mutation assay (Ames); conditions: up to 100 μg/well (equivalent to 5000 μg/plate), with and without metabolic activation
Procedure: The bacterial reverse mutation assay (Ames Test) may be used to evaluate the mutagenic properties of compounds of the invention, commonly by using the bacterial strain Salmonella typhimurium, which is mutant for the biosynthesis of the amino acid histidine.
as §1

[7] = tested on: P-glycoprotein (MDR1), human; test: MDR1-MDCK flux assay; format: in vitro ADME, Canine; conditions: dog
Description: The treatment of CNS disorders, including Alzheimer's disease, Parkinson's disease, and other disorders described herein, requires drug molecules to target the brain, which requires adequate penetration of the blood brain barrier. […] The probability that a compound can cross the blood brain barrier may be measured by an in vitro flux assay utilizing a MDR1-MDCK cell monolayer (Madin-Darby Canine Kidney cells transfected with MDR-1 resulting in overexpression of the human efflux transporter P-glycoprotein). Additionally, exposure may also be measured directly in brain and plasma using in vivo animal models.
MDR1-MDCK (Madin-Darby Canine Kidney cell monolayer) (in vitro) flux assay.

[8] = Log D; format: physicochemical; conditions: pH 7.4; read-out: Log D measured at pH 7.4
Description: log D: distribution co-efficient; lipophilicity measurement.

Row | fold more potent against USP30 than Reference Example B ([1]; biochemical assay, v Reference Example B) [fold] | fold more potent against USP30 than Reference Example C ([1]; biochemical assay, v Reference Example C) [fold] | fold more potent against USP30 than Reference Example D ([1]; biochemical assay, v Reference Example D) [fold] | SMILES | IC50 [1] [µM] | fold more potent against USP30 than Reference Example A ([1]; biochemical assay) [fold] | fold more potent against USP30 than Reference Example E ([1]; biochemical assay) [fold] | fold more potent against USP30 than Reference Example F ([1]; biochemical assay) [fold] | fold more potent against USP30 than Reference Example G ([1]; biochemical assay) [fold] | Cell Tox EC50/USP30 IC50 [2] | EC50 [2] [µM] | Selectivity preference for USP30 v cathepsins [3] | IC50 [3] [µM] | IC50 [4] [µM] | induction of micronuclei ([5]; 3 hours in the presence of exogenous metabolic activation) | induction of micronuclei ([5]; 27 hours in the absence of exogenous metabolic activation) | induction of mutations, reverse mutation assay [6] | efflux ratio [7] | Papp A→B ([7]; A-B) [×10⁻⁶ cm/s] | logD [8]
1 | 3.4 | 2 | 3.2 | N#Cc1cccc(-c2nnc(C(=O)N[C@@H]3C[C@@H](CF)N(C#N)C3)o2)c1 [Example 3, N-((3R,5S)-1-Cyano-5-(fluoromethyl)pyrrolidin-3-yl)-5-(3-cyanophenyl)-1,3,4-oxadiazole-2-carboxamide] | 0.013 | 5.4 | 24 | 54 | 338 | >2300 | > 30 | 760-19700 | 9.9 to 256 | 256 |  |  |  |  |  | 
2 |  |  |  | C[C@@H]1C[C@@H](NC(=O)c2nnc(-c3cccc(C#N)c3)o2)CN1C#N [Example 1, N-((3R,5R)-1-Cyano-5-methylpyrrolidin-3-yl)-5-(3-cyanophenyl)-1,3,4-oxadiazole-2-carboxamide] | 0.029 | 2.4 | 10.7 | 24 | 152 | >1000 | > 30 | 900-10300 | 26.2 to 300 | > 300 | negative | negative | did not induce mutations | 81 | 0.9 | 1.3
